According to PubChem BioAssay (NCI):
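48-hour exposure; five concentrations; linearly interpolated endpoints. TGI: total growth inhibition.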

Columns and labels:
Test in all cases: DTP human tumour cell line panel, 48 h
[1] = system: SNB-78 CNS
[2] = system: SN12C renal
[3] = system: 786-0 renal
[4] = system: SR leukemia
[5] = system: U251 CNS
[6] = system: DMS 114 small cell lung
[7] = system: RPMI-8226 leukemia
[8] = system: HCT-116 colon
[9] = system: MDA-MB-435
[10] = system: PC-3 prostate

Row | Compound | TGI [1] [µM] | TGI [2] [µM] | TGI [3] [µM] | TGI [4] [µM] | TGI [5] [µM] | TGI [6] [µM] | TGI [7] [µM] | TGI [8] [µM] | TGI [9] [µM] | TGI [10] [µM]
1 | N#C/C(=C/c1ccc[nH]1)P(=O)(O)O | > 100 | > 100 | > 100 | > 100 | > 100 | > 100 | > 100 | > 100 | – | –
2 | Clc1cc(Cc2cc(Cl)c(Cl)c3c2OCOC3)c2c(c1Cl)COCO2 | > 100 | > 100 | 62.4 | > 100 | > 100 | > 100 | > 100 | > 100 | – | –
3 | N#CC(C(=O)CCC(=O)C(C#N)c1ccccc1)c1ccccc1 (stereo not given) | > 100 | > 100 | > 100 | > 100 | > 100 | > 100 | > 100 | > 100 | – | –
4 | COC(=O)/C([Se]c1c(C)cc(C)cc1C)=C(\[Se]c1c(C)cc(C)cc1C)C(=O)OC | > 100 | > 100 | > 100 | > 100 | > 100 | > 100 | > 100 | > 100 | – | –
5 | Oc1cc(O)c2c(-c3c(O)c(-c4ccc(O)c(O)c4)[o+]c4cc(O)cc(O)c34)c(O)c(-c3ccc(O)c(O)c3)[o+]c2c1 | > 100 | > 100 | > 100 | 74.8 | > 100 | 92.8 | > 100 | > 100 | – | –
6 | Cc1cc2nc(CCC(=O)O)c(=O)[nH]c2cc1C | > 100 | > 100 | > 100 | > 100 | > 100 | > 100 | > 100 | > 100 | – | –
7 | Nc1ncnc2c1nc(Cl)n2C1OC2COP(=O)(O)OC2C1O (stereo not given) | > 300 | > 300 | > 300 | > 300 | > 300 | > 300 | > 300 | > 300 | > 255 | > 162
8 | CCOC(=O)N1CCc2cc(OC)c(OC)c3c2c1cc1cc(OC)c(OC)cc13 | > 100 | > 100 | > 100 | > 38.6 | 67.1 | 7.1 | 60.9 | 30.7 | 2.54 | > 100
9 | O=[N+]([O-])c1nccn1CC(O)CN1CC1 (stereo not given) | > 100 | > 100 | > 100 | > 100 | > 100 | > 100 | > 100 | > 100 | – | –
10 | COC(=O)C(=O)OC1(C(C)=O)CC2(c3ccccc3)OC1(c1ccccc1)c1ccccc12 (stereo not given) | 65 | 28.6 | 26.9 | > 100 | 30.5 | 32 | > 100 | 33.8 | – | –
11 | CCCCCC/C=C1\CCC(CN2CCCC2)C1=O (stereo not given) | 60.2 | 27 | 6.43 | > 22.4 | 30 | 29.4 | 5.56 | 25 | – | –
12 | O=C(CC1(O)C(=O)Nc2c(Cl)ccc(Cl)c21)c1ccc2ccccc2c1 (stereo not given) | 46.3 | 31.3 | 22.4 | 7.62 | 61.3 | 19.2 | 31 | 28.3 | – | –
